Common to all, as to type: in vivo
For one assay, the system named is Alternaria solani. Briefly: Test G: tomato early blight, preventive spray on tomato seedlings. The conditions noted are these: tomato seedlings sprayed to run-off, inoculated next day, rated after 48 h + 5 days; for Percentage Disease Control Test G: 200 ppm. The text has this:
General protocol for preparing test suspensions for Tests A-G: the test compounds were first dissolved in acetone in an amount equal to 11% of the final volume and then suspended at the desired concentration (in ppm) in acetone and purified water (50/50 mix by volume) containing 250 ppm of the surfactant Trem® 014 (polyhydric alcohol esters). The resulting test suspensions were then used in Tests A-G. Spraying a 200 ppm test suspension to the point of run-off on the test plants was the equivalent of a rate of 800 g/ha. The test suspension was sprayed to the point of run-off on tomato seedlings. The following day the seedlings were inoculated with a spore suspension of Alternaria solani (the causal agent of tomato early blight) and incubated in a saturated atmosphere at 27° C. for 48 h, and then moved to a growth chamber at 24° C. for 5 days, after which time disease ratings were visually made. Results for Tests A-G are given in Table A. In the Table, a rating of 100 indicates 100% disease control and a rating of 0 indicates no disease control (relative to the controls). A dash (-) indicates no test results. All results are for 200 ppm except where followed by an “*”, which indicates 40 ppm.

The subject of the next assay is Septoria nodorum. The assay is described as follows: Test D: wheat glume blotch, preventive spray on wheat seedlings. The conditions noted are these: wheat seedlings sprayed to run-off, inoculated next day, rated after 48 h + 7 days; for Percentage Disease Control Test D: 200 ppm. An excerpt:
General protocol for preparing test suspensions for Tests A-G: the test compounds were first dissolved in acetone in an amount equal to 11% of the final volume and then suspended at the desired concentration (in ppm) in acetone and purified water (50/50 mix by volume) containing 250 ppm of the surfactant Trem® 014 (polyhydric alcohol esters). The resulting test suspensions were then used in Tests A-G. Spraying a 200 ppm test suspension to the point of run-off on the test plants was the equivalent of a rate of 800 g/ha. The test suspension was sprayed to the point of run-off on wheat seedlings. The following day the seedlings were inoculated with a spore suspension of Septoria nodorum (the causal agent of wheat glume blotch) and incubated in a saturated atmosphere at 20° C. for 48 h, and then moved to a growth chamber at 20° C. for 7 days, after which time disease ratings were visually made. Results for Tests A-G are given in Table A. In the Table, a rating of 100 indicates 100% disease control and a rating of 0 indicates no disease control (relative to the controls). A dash (-) indicates no test results. All results are for 200 ppm except where followed by an “*”, which indicates 40 ppm.

Assay [1] relates to Erysiphe graminis f. sp. tritici. Briefly: Test A: wheat powdery mildew, preventive spray on wheat seedlings. The settings on record: wheat seedlings sprayed to run-off, inoculated next day, rated after 8 days, 100 = 100% disease control, 0 = no control; for Percentage Disease Control Test A: 200 ppm. An excerpt:
General protocol for preparing test suspensions for Tests A-G: the test compounds were first dissolved in acetone in an amount equal to 11% of the final volume and then suspended at the desired concentration (in ppm) in acetone and purified water (50/50 mix by volume) containing 250 ppm of the surfactant Trem® 014 (polyhydric alcohol esters). The resulting test suspensions were then used in Tests A-G. Spraying a 200 ppm test suspension to the point of run-off on the test plants was the equivalent of a rate of 800 g/ha. The test suspension was sprayed to the point of run-off on wheat seedlings. The following day the seedlings were inoculated with a spore dust of Erysiphe graminis f. sp. tritici, (the causal agent of wheat powdery mildew) and incubated in a growth chamber at 20° C. for 8 days, after which time disease ratings were visually made. Results for Tests A-G are given in Table A. In the Table, a rating of 100 indicates 100% disease control and a rating of 0 indicates no disease control (relative to the controls). A dash (-) indicates no test results. All results are for 200 ppm except where followed by an “*”, which indicates 40 ppm.

The next assay has as its system Botrytis cinerea. The assay is described as follows: Test F: tomato botrytis, preventive spray on tomato seedlings. The conditions noted are these: tomato seedlings sprayed to run-off, inoculated next day, rated after 48 h + 3 days; for Percentage Disease Control Test F: 200 ppm. The text has this: General protocol for preparing test suspensions for Tests A-G: the test compounds were first dissolved in acetone in an amount equal to 11% of the final volume and then suspended at the desired concentration (in ppm) in acetone and purified water (50/50 mix by volume) containing 250 ppm of the surfactant Trem® 014 (polyhydric alcohol esters). The resulting test suspensions were then used in Tests A-G. Spraying a 200 ppm test suspension to the point of run-off on the test plants was the equivalent of a rate of 800 g/ha. The test suspension was sprayed to the point of run-off on tomato seedlings. The following day the seedlings were inoculated with a spore suspension of Botrytis cinerea (the causal agent of tomato botrytis) and incubated in saturated atmosphere at 20° C. for 48 h, and then moved to a growth chamber at 27° C. for 3 additional days, after which time disease ratings were visually made. Results for Tests A-G are given in Table A. In the Table, a rating of 100 indicates 100% disease control and a rating of 0 indicates no disease control (relative to the controls). A dash (-) indicates no test results. All results are for 200 ppm except where followed by an “*”, which indicates 40 ppm.

The subject of assay [2] is Puccinia recondita f sp. tritici. The assay is described as follows: Test B: wheat leaf rust, preventive spray on wheat seedlings. The conditions noted are these: wheat seedlings sprayed to run-off, inoculated next day, rated after 24 h + 7 days; for Percentage Disease Control Test B: 200 ppm. An excerpt: General protocol for preparing test suspensions for Tests A-G: the test compounds were first dissolved in acetone in an amount equal to 11% of the final volume and then suspended at the desired concentration (in ppm) in acetone and purified water (50/50 mix by volume) containing 250 ppm of the surfactant Trem® 014 (polyhydric alcohol esters). The resulting test suspensions were then used in Tests A-G. Spraying a 200 ppm test suspension to the point of run-off on the test plants was the equivalent of a rate of 800 g/ha. The test suspension was sprayed to the point of run-off on wheat seedlings. The following day the seedlings were inoculated with a spore suspension of Puccinia recondita f sp. tritici (the causal agent of wheat leaf rust) and incubated in a saturated atmosphere at 20° C. for 24 h, and then moved to a growth chamber at 20° C. for 7 days, after which time disease ratings were visually made. Results for Tests A-G are given in Table A. In the Table, a rating of 100 indicates 100% disease control and a rating of 0 indicates no disease control (relative to the controls). A dash (-) indicates no test results. All results are for 200 ppm except where followed by an “*”, which indicates 40 ppm.

A further assay relates to Septoria tritici. The assay is described as follows: Test E: wheat leaf blotch, preventive spray on wheat seedlings. The settings on record: 200 ppm, wheat seedlings sprayed to run-off, inoculated next day, rated after 48 h + 19 days. The text has this:
General protocol for preparing test suspensions for Tests A-G: the test compounds were first dissolved in acetone in an amount equal to 11% of the final volume and then suspended at the desired concentration (in ppm) in acetone and purified water (50/50 mix by volume) containing 250 ppm of the surfactant Trem® 014 (polyhydric alcohol esters). The resulting test suspensions were then used in Tests A-G. Spraying a 200 ppm test suspension to the point of run-off on the test plants was the equivalent of a rate of 800 g/ha. The test suspension was sprayed to the point of run-off on wheat seedlings. The following day the seedlings were inoculated with a spore suspension of Septoria tritici (the causal agent of wheat leaf blotch) and incubated in a saturated atmosphere at 24° C. for 48 h, and then moved to a growth chamber at 20° C. for 19 days, after which time disease ratings were visually made. Results for Tests A-G are given in Table A. In the Table, a rating of 100 indicates 100% disease control and a rating of 0 indicates no disease control (relative to the controls). A dash (-) indicates no test results. All results are for 200 ppm except where followed by an “*”, which indicates 40 ppm.

In assay [3] the test system is Puccinia recondita f. sp. tritici. The assay is described as follows: Test C: wheat leaf rust, spray the day after inoculation of wheat seedlings.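 Further: Curative spray on infected wheat seedlings with visual rating 5 days later.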 The settings on record: 200 ppm; wheat seedlings inoculated, sprayed the following day, rated after 5 days. An excerpt: General protocol for preparing test suspensions for Tests A-G: the test compounds were first dissolved in acetone in an amount equal to 11% of the final volume and then suspended at the desired concentration (in ppm) in acetone and purified water (50/50 mix by volume) containing 250 ppm of the surfactant Trem® 014 (polyhydric alcohol esters). The resulting test suspensions were then used in Tests A-G. Spraying a 200 ppm test suspension to the point of run-off on the test plants was the equivalent of a rate of 800 g/ha. Wheat seedlings were inoculated with a spore suspension of Puccinia recondita f. sp. tritici (the causal agent of wheat leaf rust) and incubated in a saturated atmosphere at 20° C. for 24 h. The following day, the test suspension was sprayed to the point of run-off on the wheat seedlings and then moved to a growth chamber at 20° C. for 5 days, after which time disease ratings were visually made. Results for Tests A-G are given in Table A. In the Table, a rating of 100 indicates 100% disease control and a rating of 0 indicates no disease control (relative to the controls). A dash (-) indicates no test results. All results are for 200 ppm except where followed by an “*”, which indicates 40 ppm.

Molecules are shown by their SMILES.

Take `COC(=O)NCc1cc(-c2ccn(-c3ccc4c(c3)CCCO4)n2)ccc1Cl` [Compound 1, methyl N-[[2-chloro-5-[1-(3,4-dihydro-2H-1-benzopyran-6-yl)-1H-pyrazol-3-yl]phenyl]methyl]carbamate]: the pest or weed control at 200 ppm is 100% in the assay with Alternaria solani (Alternaria solani, topical, 168 h, read-out: Percentage Disease Control Test G); 100% in the assay on Septoria nodorum (Parastagonospora nodorum, 216 h, read-out: Percentage Disease Control Test D); 100% in assay [1] (Blumeria graminis, 192 h, read-out: Percentage Disease Control Test A); 0% in the assay with Botrytis cinerea (Botrytis cinerea, topical, 120 h, read-out: Percentage Disease Control Test F); 100% in assay [2] (Puccinia recondita, 192 h, read-out: Percentage Disease Control Test B); 92% in the assay with Septoria tritici (Zymoseptoria tritici, 456 h, read-out: Percentage Disease Control Test E).
Turning to `COC(=O)NCc1cc(-n2ccc(-c3ccc4c(c3)NCCO4)n2)ccc1F` [Compound 15], in the assay on Alternaria solani, the “Percentage Disease Control Test G” value worked out at 12%. Besides, the “Percentage Disease Control Test D” value in the assay on Septoria nodorum is 100%. Further, in assay [3], the “Percentage Disease Control Test C” value came out at 38%. The “Percentage Disease Control Test A” value in assay [1] worked out at 0%. Further, the “Percentage Disease Control Test F” value in the assay with Botrytis cinerea came out at 80%. For the same compound, the “Percentage Disease Control Test B” value in assay [2] was 100%. The “Percentage Disease Control Test E” value with Septoria tritici worked out at 99%.
Consider `COC(=O)NCc1cc(-n2ccc(-c3ccc4c(c3)N(C)CCO4)n2)ccc1F` [Compound 21], for which the “Percentage Disease Control Test G” value with Alternaria solani is reported as 99%. In addition, the “Percentage Disease Control Test D” value with Septoria nodorum came to 100%. Besides, the “Percentage Disease Control Test C” value in assay [3] amounted to 98%. Moreover, the “Percentage Disease Control Test A” value in assay [1] was 13%. In addition, the “Percentage Disease Control Test F” value in the assay with Botrytis cinerea turned out to be 99%. Besides, in assay [2], the “Percentage Disease Control Test B” value is listed as 100%. Also, the “Percentage Disease Control Test E” value with Septoria tritici is given as 96%.
For the compound `COC(=O)NCc1cc(-n2ccc(-c3ccc4c(c3)C(=O)CCO4)n2)ccc1F` [Compound 18], the “Percentage Disease Control Test G” value in the assay with Alternaria solani is 50%. The “Percentage Disease Control Test D” value in the assay on Septoria nodorum was 99%. The “Percentage Disease Control Test C” value in assay [3] is given as 74%. Further, the “Percentage Disease Control Test A” value in assay [1] came out at 90%. The “Percentage Disease Control Test F” value with Botrytis cinerea is on record as 79%. For the same compound, the “Percentage Disease Control Test B” value in assay [2] was 100%. The “Percentage Disease Control Test E” value in the assay on Septoria tritici is reported as 97%.
Consider `COC(=O)NCc1cc(-n2ccc(-c3ccc4c(c3)NC(=O)CO4)n2)ccc1F` [Compound 14], for which, in the assay with Alternaria solani, the “Percentage Disease Control Test G” value worked out at 0%. Also, in the assay with Septoria nodorum, the “Percentage Disease Control Test D” value is 0%. Also, the “Percentage Disease Control Test C” value in assay [3] was 0%. For the same compound, in assay [1], the “Percentage Disease Control Test A” value came out at 0%. The “Percentage Disease Control Test F” value in the assay with Botrytis cinerea is given as 0%. The “Percentage Disease Control Test B” value in assay [2] was determined as 54%. Further, the “Percentage Disease Control Test E” value with Septoria tritici is 44%.
Turning to `COC(=O)NCc1cc(-n2ccc(-c3ccc4c(c3)OCCO4)n2)ccc1C` [Compound 26], the “Percentage Disease Control Test G” value in the assay on Alternaria solani is on record as 9%. Moreover, the “Percentage Disease Control Test D” value in the assay with Septoria nodorum came out at 100%. Moreover, in assay [3], the “Percentage Disease Control Test C” value came to 100%. For the same compound, the “Percentage Disease Control Test A” value in assay [1] is recorded as 100%. In addition, in the assay with Botrytis cinerea, the “Percentage Disease Control Test F” value is 33%. In assay [2], the “Percentage Disease Control Test B” value was 100%. Also, the “Percentage Disease Control Test E” value in the assay with Septoria tritici was determined as 99%.
For the compound `COC(=O)NCc1cc(-c2ccn(-c3ccc4c(c3)OCCO4)n2)ccc1C` [Compound 19], in the assay on Alternaria solani, the “Percentage Disease Control Test G” value is on record as 73%. Further, the “Percentage Disease Control Test D” value in the assay on Septoria nodorum is listed as 100%. In addition, the “Percentage Disease Control Test C” value in assay [3] was found to be 100%. Also, in assay [1], the “Percentage Disease Control Test A” value is on record as 100%. Further, the “Percentage Disease Control Test F” value in the assay on Botrytis cinerea stood at 99%. Besides, the “Percentage Disease Control Test B” value in assay [2] turned out to be 100%. In addition, in the assay with Septoria tritici, the “Percentage Disease Control Test E” value is given as 100%.

Source of the values: patent publication US8921360B2, “Heterobicycle-substituted azolyl benzene fungicides” (priority 2009, dated 2014).
